Measured values taken from EP0891764B1, “Ethanolic solutions of N-pentadecanoylisoleucine and use thereof in cosmetics” (KASHIMA OIL COMPANY, priority 1997, dated 1999).
One block for each compound: values may come before it.

What was measured:
[1] = test system: male mice aged 8 weeks of C3H series; experiment: Hair growth (retrichogenous) test on depilated backs of mice, visual observation versus ethanol only; assay type: in vivo; parameters: key: ⓞ: rapid and excellent retrichogenous action; ○: rapid and good retrichogenous action; Δ: slow and slight retrichogenous action; conditions: 1% by weight in ethanol, 0.1 mℓ applied to depilated back once a day over 3 weeks; visual comparison with ethanol only
Description: The results are given also in Table 1. […] Table 1

[2] = Solubility in 70% ethanol at 10°C
Description: A group of eight male mice aged 8 weeks of C3H series with a body weight of 18 to 24g was subjected to depilation at a back portion thereof in a size of about 2× 3.5 cm. Then, each of the N-acylamino acid compounds as shown in Table 1 was dissolved in ethanol to a concentration of 1% by weight as a sample to be tested. Then 0.1 mℓ of the sample were applied to the depilated back portions of the mice once a day over a period of 3 weeks to visually observe the hair growth state. An evaluation was made of the hair growth effect by visually observing the state of trichogenous promotion in comparison with the back portions coated only with ethanol on the basis of the criterion in Table 1.

Solubility (w/w %) [2]: 0.3 w/w %
Compound: CCCCCCCCCCCCCCC(=O)N[C@@H](CC(=O)O)C(=O)O [Comp. Example 7, N-PDNY-L-asparatic acid]
Retrichogenous effect [1]: ○

Compound: CCCCCCCCCCCCCCC(=O)N[C@@H](Cc1ccc(O)cc1)C(=O)O [Comp. Example 6, N-PDNY-L-tyrosine]
Retrichogenous effect [1]: ⓞ | Solubility (w/w %) [2]: 0.7 w/w %

Compound: CCCCCCCCCCCCCCC(=O)N[C@@H](CC(C)C)C(=O)O [Comp. Example 2, N-PDNY-L-leucine]
Retrichogenous effect [1]: ⓞ | Solubility (w/w %) [2]: 2.1 w/w %

Solubility (w/w %) [2]: 4.0 w/w %
Compound: CCCCCCCCCCCCCCC(=O)N[C@H](C(=O)O)[C@@H](C)CC [Example 1, N-pentadecanoyl-L-isoleucine]
Retrichogenous effect [1]: ⓞ

Compound: CCCCCCCCCCCCCCC(=O)N[C@@H](C)C(=O)O [Comp. Example 1, N-PDNY-L-alanine]
Retrichogenous effect [1]: ⓞ | Solubility (w/w %) [2]: 0.8 w/w %

Compound: CCCCCCCCCCCCCCC(=O)N[C@@H](Cc1ccccc1)C(=O)O [Comp. Example 5, N-PDNY-L-phenyl-alanine]
Retrichogenous effect [1]: ⓞ | Solubility (w/w %) [2]: 3.7 w/w %

Compound: CCCCCCCCCCCCCCC(=O)N[C@H](C(=O)O)C(C)C [Comp. Example 4, N-PDNY-L-valine]
Retrichogenous effect [1]: ⓞ | Solubility (w/w %) [2]: 2.5 w/w %

Compound: CCCCCCCCCCCCCCC(=O)N[C@@H](CCSC)C(=O)O [Comp. Example 3, N-PDNY-L-methionine]
Retrichogenous effect [1]: ⓞ
